From patent US20110183978A1, “Phenylpyri(mi)dinylazoles” (Bayer CropScience AG, priority 2009, published 2011)

Assay: physchem

Compound	chromatographic logP (LogPA)	chromatographic logP (pH 2.7, logP (pH 2.7))	chromatographic logP (pH 2.3, LogP (pH 2.3))
CC(C)C(=O)Nc1cc(-c2cn(OC3CCCC3)nc2-c2ccc(F)cc2)ccn1 [Compound 270]	3.65	–	–
CC(C)Cn1cc(-c2ccnc(S(C)(=O)=O)n2)c(-c2ccc(F)cc2)n1 [Compound 287]	2.9	–	–
Cc1csc2c(-c3cn(CC(C)C)nc3-c3ccc(F)cc3)ncnc12 [Compound 288]	3.85	–	–
Cc1csc2c(-c3cn(CC4CC4)nc3-c3ccc(F)cc3)ncnc12 [Compound 289]	3.45	–	–
CCC(=O)Nc1cc(-c2c(-c3ccc(F)cc3)nn(C(C)C)c2C(F)(F)F)ccn1 [Compound 304]	4.07	–	–
CC(C)C(=O)Nc1cc(-c2cn(Cc3cccc(C#N)c3)nc2-c2ccc(F)cc2)ccn1 [Compound 308]	2.69	–	–
CC(C)n1cc(-c2ncnc3c2CCCN3)c(-c2ccc(F)cc2)n1 [Compound 311]	1.29	–	–
CC(C)n1cc(-c2ccnc(NC(c3ccc(F)cc3)C(F)(F)F)c2)c(-c2ccc(F)cc2)n1 (centres unmarked) [Compound 324]	3.88	–	–
CC(C)n1cc(-c2ccnc(NC(c3ccccc3)C(F)(F)F)c2)c(-c2ccc(F)cc2)n1 (centres unmarked) [Compound 325]	3.66	–	–
CCn1cc(-c2ccnc(NC(=O)CCCCC(=O)OC)c2)c(-c2ccc(F)cc2)n1 [Compound 330]	2.16	–	–
CCn1cc(-c2ccnc(NC(=O)c3cn(C)nc3C(F)F)c2)c(-c2ccc(F)cc2)n1 [Compound 333]	2.47	–	–
CCn1cc(-c2ccnc(NC(=O)c3ccsc3C(F)F)c2)c(-c2ccc(F)cc2)n1 [Compound 334]	3.27	–	–
CCn1cc(-c2ccnc(NC(=O)CCc3ccc(Cl)cc3)c2)c(-c2ccc(F)cc2)n1 [Compound 336]	3.32	–	–
Cn1cc(-c2ccnc(NC(=O)CCc3ccccc3)c2)c(-c2ccc(F)cc2)n1 [Compound 343]	2.54	–	–
Cn1cc(-c2ccnc(NC(=O)c3ccc(F)cc3)c2)c(-c2ccc(F)cc2)n1 [Compound 344]	2.61	–	–
COCCOCC(=O)Nc1cc(-c2cn(C)nc2-c2ccc(F)cc2)ccn1 [Compound 345]	1.96	–	–
COCC(=O)Nc1nccc(-c2cn(C(C)C)nc2-c2ccc(F)cc2)n1 [Compound 354]	2.37	–	–
CC(C)C(=O)Nc1nccc(-c2cn(C(C)C)nc2-c2ccc(F)cc2)n1 [Compound 355]	2.55	–	–
CC(C)n1cc(-c2ccnc(NC(=O)C3CC3)n2)c(-c2ccc(F)cc2)n1 [Compound 356]	2.49	–	–
CC(=O)Nc1nccc(-c2cn(CC(C)C)nc2-c2ccc(F)cc2)n1 [Compound 357]	2.44	–	–
COCCn1cc(-c2ccnc(NC(C)C)n2)c(-c2ccc(F)cc2)n1 [Compound 358]	1.79	–	–
CC(C)Nc1nccc(-c2cn(CCCl)nc2-c2ccc(F)cc2)n1 [Compound 359]	2.05	–	–
CCC(C)n1cc(-c2ccnc(NC(C)C)n2)c(-c2ccc(F)cc2)n1 (centres unmarked) [Compound 360]	2.41	–	–
CC(C)Cn1cc(-c2ccnc(NC(C)C3CC3)n2)c(-c2ccc(F)cc2)n1 (centres unmarked) [Compound 372]	2.73	–	–
CC(C)n1cc(-c2ccnc3ccccc23)c(-c2ccc(F)cc2)n1 [[I-1], 4-[3-(4-Fluorophenyl)-1-isopropyl-1H-pyrazol-4-yl]quinoline]	–	2.23	–
CCC(=O)Nc1cc(-c2cn(CCOC)nc2-c2ccc(F)cc2)ccn1 [[I-2], N-{4-[3-(4-Fluorophenyl)-1-(2-methoxyethyl)-1H-pyrazol-4-yl]pyridin-2-yl}propanamide]	–	1.61	–
N#Cc1cccc(Cn2cc(-c3ccncc3)c(-c3ccc(F)cc3)n2)c1 [[I-3], 3-{[3-(4-Fluorophenyl)-4-(pyridin-4-yl)-1H-pyrazol-1-yl]methyl}benzonitrile]	–	1.51	–

Compound	chromatographic logP (LogPA)	chromatographic logP (pH 2.7, logP (pH 2.7))	chromatographic logP (pH 2.3, LogP (pH 2.3))
N#Cc1cccc(Cn2ncc(-c3ccncc3)c2-c2ccc(F)cc2)c1 [[I-4], 3-{[5-(4-Fluorophenyl)-4-(pyridin-4-yl)-1H-pyrazol-1-yl]methyl}benzonitrile]	–	1.38	–
CC(C)n1cc(-c2ccnc(NC(=O)C3CC3)c2)c(-c2ccc(F)cc2)n1 [[I-c-1], N-{4-[3-(4-Fluorophenyl)-1-isopropyl-1H-pyrazol-4-yl]pyridin-2-yl}cyclopropanecarboxamide]	–	2.07	–
CC(C)Cn1cc(-c2ccnc(NC(=O)C(C)C)c2)c(-c2ccc(F)cc2)n1 [[I-c-2], N-{4-[3-(4-fluorophenyl)-1-isobutyl-1H-pyrazol-4-yl]pyridin-2-yl}-2-methylpropanamide]	–	2.89	–
CC(C)n1cc(-c2ccncc2)c(-c2c(F)cccc2F)n1 [[I-d-1], 4-[3-(2,6-Difluorophenyl)-1-isopropyl-1H-pyrazol-4-yl]pyridine]	–	1.4	–
CC(C)n1ncc(-c2ccncc2)c1-c1c(F)cccc1F [[I-d-2], 4-[5-(2,6-Difluorophenyl)-1-isopropyl-1H-pyrazol-4-yl]pyridine]	–	1.54	–
CCC(=O)Nc1nccc(-c2cn(C(C)C)nc2-c2ccc(F)cc2)n1 [[I-g-1], N-{4-[3-(4-Fluorophenyl)-1-isopropyl-1H-pyrazol-4-yl]pyrimidin-2-yl}propanamide]	–	2.35	–
CC(C)n1cc(-c2ccnc(N)c2)c(-c2ccc(F)cc2)n1 [[III-1], 4-[3-(4-Fluorophenyl)-1-isopropyl-1H-pyrazol-4-yl]pyridin-2-amine]	–	1.22	1.22
COCCn1cc(-c2ccnc(N)c2)c(-c2ccc(F)cc2)n1 [[III-2], 4-[3-(4-Fluorophenyl)-1-(2-methoxyethyl)-1H-pyrazol-4-yl]pyridin-2-amine]	–	0.98	0.98
CCn1cc(-c2ccnc(N)c2)c(-c2ccc(F)cc2)n1 [[III-3], 4-[1-Ethyl-3-(4-fluorophenyl)-1H-pyrazol-4-yl]pyridin-2-amine]	–	0.97	0.97
Nc1cc(-c2cn(CC(F)F)nc2-c2ccc(F)cc2)ccn1 [[III-4], 4-[1-(2,2-Difluoroethyl)-3-(4-fluorophenyl)-1H-pyrazol-4-yl]pyridin-2-amine]	–	1.03	1.03
Cn1cc(-c2ccnc(N)c2)c(-c2ccc(F)cc2)n1 [[III-5], 4-[3-(4-Fluorophenyl)-1-methyl-1H-pyrazol-4-yl]pyridin-2-amine]	–	0.71	0.71
CC(C)n1cc(-c2ccnc(N)n2)c(-c2ccc(F)cc2)n1 [[III-a-1], 4-[3-(4-Fluorophenyl)-1-isopropyl-1H-pyrazol-4-yl]pyrimidin-2-amine]	–	1.54	–
CC(C)C(=O)Nc1cc(Br)ccn1 [[IV-c-1], N-(4-bromopyridin-2-yl)-2-methylpropanamide]	–	2.09	–
Cc1[nH]nc(-c2ccc(F)cc2)c1-c1ccncc1 [[IX-b-1], 4-[3-(4-Fluorophenyl)-5-methyl-1H-pyrazol-4-yl]pyridine]	–	0.6	–
Fc1ccc(-c2[nH]nc(C3CC3)c2-c2ccncc2)cc1 [[IX-b-2], 4-[3-(4-Fluorophenyl)-5-cyclopropyl-1H-pyrazol-4-yl]pyridine]	–	0.92	–
Cn1cc(Br)c(-c2ccc(F)cc2)n1 [[V1-8], 4-Bromo-3-(4-fluorophenyl)-1-methyl-1H-pyrazole]	–	2.86	–
CC(C)n1cc(B2OC(C)(C)C(C)(C)O2)c(-c2ccc(F)cc2)n1 [[V-1], 3-(4-Fluorophenyl)-1-isopropyl-4-(4,4,5,5-tetramethyl-1,3,2-dioxaborolan-2-yl)-1H-pyrazole]	–	4.51	4.46
COCCn1cc(B2OC(C)(C)C(C)(C)O2)c(-c2ccc(F)cc2)n1 [[V-2], 3-(4-Fluorophenyl)-1-(2-methoxyethyl)-4-(4,4,5,5-tetramethyl-1,3,2-dioxaborolan-2-yl)-1H-pyrazole]	–	3.58	3.58
CC(C)Cn1cc(B2OC(C)(C)C(C)(C)O2)c(-c2ccc(F)cc2)n1 [[V-3], 3-(4-Fluorophenyl)-1-isobutyl-4-(4,4,5,5-tetramethyl-1,3,2-dioxaborolan-2-yl)-1H-pyrazole]	–	4.76	4.89
CC1(C)OB(c2cn(CC(F)F)nc2-c2ccc(F)cc2)OC1(C)C [[V-4], 1-(2,2-difluoroethyl)-3-(4-fluorophenyl)-4-(4,4,5,5-tetramethyl-1,3,2-dioxaborolan-2-yl)-1H-pyrazole]	–	3.84	3.84
CC(C)On1cc(B2OC(C)(C)C(C)(C)O2)c(-c2ccc(F)cc2)n1 [[V-5], 3-(4-Fluorophenyl)-1-isopropoxy-4-(4,4,5,5-tetramethyl-1,3,2-dioxaborolan-2-yl)-1H-pyrazole]	–	4.81	4.81
CC1(C)OB(c2cn(OC3CCCC3)nc2-c2ccc(F)cc2)OC1(C)C [[V-6], 1-(Cyclopentyloxy)-3-(4-fluorophenyl)-4-(4,4,5,5-tetramethyl-1,3,2-dioxaborolan-2-yl)-1H-pyrazole]	–	5.51	5.51
CC1(C)OB(c2cn(C3CC3)nc2-c2ccc(F)cc2)OC1(C)C [[V-7], 1-Cyclopropyl-3-(4-fluorophenyl)-4-(4,4,5,5-tetramethyl-1,3,2-dioxaborolan-2-yl)-1H-pyrazole]	–	3.47	3.47
CC1(C)OB(c2cn(CC3CC3)nc2-c2ccc(F)cc2)OC1(C)C [[V-8], 1-(Cyclopropylmethyl)-3-(4-fluorophenyl)-4-(4,4,5,5-tetramethyl-1,3,2-dioxaborolan-2-yl)-1H-pyrazole]	–	4.42	4.42
Cn1cc(B2OC(C)(C)C(C)(C)O2)c(-c2ccc(F)cc2)n1 [[V-9], 3-(4-Fluorophenyl)-1-methyl-4-(4,4,5,5-tetramethyl-1,3,2-dioxaborolan-2-yl)-1H-pyrazole]	–	3.47	3.47
CC1(C)OB(c2cn(CCCl)nc2-c2ccc(F)cc2)OC1(C)C [[V-10], 1-(2-Chloroethyl)-3-(4-fluorophenyl)-4-(4,4,5,5-tetramethyl-1,3,2-dioxaborolan-2-yl)-1H-pyrazole]	–	4.06	4.06
